The source made the active and inactive calls. The rule behind the calls is not given here.
What was measured:
L02 = assay: Cytotoxicity against human L-02 cells incubated for 24 hrs by MTT assay; type: cell-based; conditions: L02, 24 h
[1] = target: NACHT, LRR and PYD domains-containing protein 3 (Mus musculus) (UniProt Q8R4B8); assay: Inhibition of NLRP3 inflammasome activation in LPS-stimulated mouse bone marrow-derived macrophages assessed as reduction in cleaved IL-1beta in supernatant at 2 uM preincubated for 30 mins followed by MSU addition and measured after 0.5 hrs by Western blot analysis; type: tissue-based; conditions: Macrophage, time 60.0 min
NACHT, LRR and PYD domains-containing protein 3 (Mus musculus), sequence (Q8R4B8 whole entry, the tested form may be a part): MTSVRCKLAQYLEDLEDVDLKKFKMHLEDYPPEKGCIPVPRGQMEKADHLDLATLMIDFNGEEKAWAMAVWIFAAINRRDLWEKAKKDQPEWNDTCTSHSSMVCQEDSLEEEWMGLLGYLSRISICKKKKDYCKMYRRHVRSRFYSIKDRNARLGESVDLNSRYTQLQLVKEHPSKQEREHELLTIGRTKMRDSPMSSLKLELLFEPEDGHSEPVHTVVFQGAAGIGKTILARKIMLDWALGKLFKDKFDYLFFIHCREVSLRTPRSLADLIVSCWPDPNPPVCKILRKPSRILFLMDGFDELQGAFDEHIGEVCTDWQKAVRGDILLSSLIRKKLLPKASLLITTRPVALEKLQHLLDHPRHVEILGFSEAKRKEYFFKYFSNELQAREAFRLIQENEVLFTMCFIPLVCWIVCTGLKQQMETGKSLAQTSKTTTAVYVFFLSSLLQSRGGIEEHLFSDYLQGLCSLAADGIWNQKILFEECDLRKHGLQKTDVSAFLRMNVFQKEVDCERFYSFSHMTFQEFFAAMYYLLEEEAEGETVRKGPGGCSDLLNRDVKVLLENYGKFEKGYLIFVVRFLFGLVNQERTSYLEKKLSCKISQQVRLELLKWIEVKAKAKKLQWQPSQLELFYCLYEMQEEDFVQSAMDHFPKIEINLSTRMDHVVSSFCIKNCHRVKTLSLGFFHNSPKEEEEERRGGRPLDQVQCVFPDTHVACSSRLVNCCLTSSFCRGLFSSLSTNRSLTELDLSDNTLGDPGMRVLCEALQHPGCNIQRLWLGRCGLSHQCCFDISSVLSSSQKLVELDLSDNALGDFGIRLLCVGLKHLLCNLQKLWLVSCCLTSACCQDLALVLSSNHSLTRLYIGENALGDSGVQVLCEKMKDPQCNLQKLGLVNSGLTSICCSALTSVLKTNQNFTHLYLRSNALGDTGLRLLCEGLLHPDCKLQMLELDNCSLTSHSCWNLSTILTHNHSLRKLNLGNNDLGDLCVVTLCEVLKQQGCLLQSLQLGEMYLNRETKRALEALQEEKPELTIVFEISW

BMDM [2] = assay: Effect on ASC expression in LPS-stimulated mouse bone marrow-derived macrophages at 0.5 to 2 uM preincubated for 30 mins followed by nigericin addition and measured after 30 mins by Western blot analysis; type: functional, tissue-based; conditions: dose 0.5-2 µM, time 60.0 min
[3] = Clearance in mouse at 20 mg/kg, po measured up to 24 hrs by LC-MS/MS analysis; type: ADME, organism-based; conditions: in vivo
[4] = target: NACHT, LRR and PYD domains-containing protein 3 (Homo sapiens, UniProt Q96P20); assay: Binding affinity to His-GFP fused tagged NLRP3 (unknown origin) expressed in HEK293T incubated for 30 mins by microscale thermophoresis assay; type: cell-based
NACHT, LRR and PYD domains-containing protein 3, sequence (Q96P20 whole entry, the tested form may be a part): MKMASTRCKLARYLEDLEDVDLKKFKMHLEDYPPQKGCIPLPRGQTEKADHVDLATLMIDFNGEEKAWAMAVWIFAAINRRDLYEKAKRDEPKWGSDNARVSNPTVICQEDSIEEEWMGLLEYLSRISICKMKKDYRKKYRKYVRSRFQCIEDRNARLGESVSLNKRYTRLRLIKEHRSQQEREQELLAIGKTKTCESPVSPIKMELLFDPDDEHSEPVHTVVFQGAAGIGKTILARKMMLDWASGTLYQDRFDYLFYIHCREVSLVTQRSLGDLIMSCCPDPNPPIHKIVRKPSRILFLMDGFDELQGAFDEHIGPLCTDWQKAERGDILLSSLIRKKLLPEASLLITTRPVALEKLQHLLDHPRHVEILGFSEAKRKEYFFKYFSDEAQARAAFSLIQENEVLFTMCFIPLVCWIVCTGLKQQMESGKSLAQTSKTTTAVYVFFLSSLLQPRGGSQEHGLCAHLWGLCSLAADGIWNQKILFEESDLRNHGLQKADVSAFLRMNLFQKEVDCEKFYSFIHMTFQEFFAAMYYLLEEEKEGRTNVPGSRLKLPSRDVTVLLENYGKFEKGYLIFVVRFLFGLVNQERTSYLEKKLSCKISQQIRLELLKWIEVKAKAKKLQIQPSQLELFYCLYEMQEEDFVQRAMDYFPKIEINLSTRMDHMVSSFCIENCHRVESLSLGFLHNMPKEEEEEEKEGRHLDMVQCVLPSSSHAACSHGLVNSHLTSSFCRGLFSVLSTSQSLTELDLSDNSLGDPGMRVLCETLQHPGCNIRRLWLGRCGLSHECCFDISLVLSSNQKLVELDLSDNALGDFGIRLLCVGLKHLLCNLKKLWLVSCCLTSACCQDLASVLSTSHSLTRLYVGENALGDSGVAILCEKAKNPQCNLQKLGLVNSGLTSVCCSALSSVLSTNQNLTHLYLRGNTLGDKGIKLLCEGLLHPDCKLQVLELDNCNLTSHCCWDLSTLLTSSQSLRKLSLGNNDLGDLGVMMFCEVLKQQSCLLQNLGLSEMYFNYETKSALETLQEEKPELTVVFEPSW

BMDM [5] = assay: Effect on NLRP3 expression in LPS-stimulated mouse bone marrow-derived macrophages at 0.5 to 2 uM preincubated for 30 mins followed by nigericin addition and measured after 30 mins by Western blot analysis; type: functional, tissue-based; conditions: dose 0.5-2 µM, time 60.0 min
[6] = target: NACHT, LRR and PYD domains-containing protein 3 (Mus musculus) (UniProt Q8R4B8); assay: Inhibition of NLRP3 inflammasome activation in LPS-stimulated mouse bone marrow-derived macrophages assessed as reduction in pro IL-1beta secretion in cell lysate at 2 uM preincubated for 30 mins followed by nigericin addition and measured after 0.5 hrs by Western blot analysis; type: subcellular; conditions: Macrophage, time 60.0 min
[7] = target: NACHT, LRR and PYD domains-containing protein 3 (Mus musculus) (UniProt Q8R4B8); assay: Inhibition of NLRP3 inflammasome activation in LPS-stimulated mouse bone marrow-derived macrophages assessed as reduction in pro IL-1beta secretion in cell lysate at 2 uM preincubated for 30 mins followed by ATP addition and measured after 0.5 hrs by Western blot analysis; type: subcellular; conditions: Macrophage, time 60.0 min
[8] = Tmax in mouse at 20 mg/kg, po measured up to 24 hrs by LC-MS/MS analysis; type: ADME, organism-based; conditions: in vivo
Mus musculus [9] = assay: Protection against DSS-induced acute ulcerative colitis in C57BL/6 mouse assessed as reduction in pathological index score at 10 to 20 mg/kg, ig administered for 7 days by Hematoxylin and eosin staining based optical microscopy; type: functional, organism-based; conditions: dose 10-20 mg/kg, time 7.0 day
[10] = target: NACHT, LRR and PYD domains-containing protein 3 (Mus musculus) (UniProt Q8R4B8); assay: Inhibition of NLRP3 inflammasome activation in LPS-stimulated mouse bone marrow-derived macrophages assessed as reduction in pro caspase1 p20 in cell lysate at 2 uM preincubated for 30 mins followed by ATP addition and measured after 0.5 hrs by Western blot analysis; type: subcellular; conditions: Macrophage, time 60.0 min
[11] = target: NACHT, LRR and PYD domains-containing protein 3 (Mus musculus) (UniProt Q8R4B8); assay: Inhibition of NLRP3 inflammasome activation in LPS-stimulated mouse bone marrow-derived macrophages assessed as reduction in IL-1beta secretion at 1 to 4 uM preincubated for 30 mins followed by nigericin addition and measured after 0.5 hrs by Western blot analysis; type: tissue-based; conditions: Macrophage, dose 1-4 µM
Mus musculus [12] = assay: In vivo inhibition of NLRP3 inflammasome activation in C57BL/6 mouse assessed as reduction in MPO activity at 10 to 20 mg/kg, ig administered for 7 days by ELISA; type: functional, organism-based; conditions: dose 10-20 mg/kg, time 7.0 day
Mus musculus [13] = assay: In vivo inhibition of NLRP3 inflammasome activation in C57BL/6 mouse model of DSS-induced ulcerative colitis assessed as reduction in IL-1beta expression at 10 to 20 mg/kg, ig administered for 7 days by ELISA; type: functional, organism-based; conditions: dose 10-20 mg/kg, time 7.0 day
[14] = target: NACHT, LRR and PYD domains-containing protein 3 (Mus musculus) (UniProt Q8R4B8); assay: Inhibition of NLRP3 inflammasome activation in LPS-stimulated mouse bone marrow-derived macrophages assessed as reduction in activated caspase1 p20 in supernatant at 2 uM preincubated for 30 mins followed by ATP addition and measured after 0.5 hrs by Western blot analysis; type: tissue-based; conditions: Macrophage, time 60.0 min
[15] = target: NACHT, LRR and PYD domains-containing protein 3 (Mus musculus) (UniProt Q8R4B8); assay: Inhibition of NLRP3 inflammasome activation in LPS-stimulated mouse bone marrow-derived macrophages assessed as reduction in pro IL-1beta in cell lysate at 2 uM preincubated for 30 mins followed by MSU addition and measured after 0.5 hrs by Western blot analysis; type: subcellular; conditions: Macrophage, time 60.0 min
Mus musculus [16] = assay: Downregulation of IL6 expression in colon of C57BL/6 mouse model of DSS-induced ulcerative colitis at 10 to 20 mg/kg, ig administered for 7 days by ELISA; type: functional, organism-based; conditions: dose 10-20 mg/kg, time 7.0 day
[17] = Toxicity in C57BL/6 mouse assessed as overactivity at 20 to 40 mg/kg, ig administered for 28 days; type: organism-based; conditions: in vivo, po, 672 h, dose 20-40 mg/kg, time 28 day
[18] = Toxicity in C57BL/6 mouse assessed as effect on spleen at 20 to 40 mg/kg, ig administered for 28 days; type: organism-based; conditions: in vivo, po, 672 h, dose 20-40 mg/kg, time 28 day
BMDM [19] = assay: Effect on pro-IL1beta expression in LPS-stimulated mouse bone marrow-derived macrophages at 0.5 to 2 uM preincubated for 30 mins followed by nigericin addition and measured after 30 mins by Western blot analysis; type: functional, tissue-based; conditions: dose 0.5-2 µM, time 60.0 min
[20] = target: NACHT, LRR and PYD domains-containing protein 3 (Mus musculus) (UniProt Q8R4B8); assay: Inhibition of NLRP3 inflammasome activation in LPS-stimulated mouse bone marrow-derived macrophages assessed as reduction in pro caspase1 in cell lysate at 2 uM preincubated for 30 mins followed by MSU addition and measured after 0.5 hrs by Western blot analysis; type: subcellular; conditions: Macrophage, time 60.0 min
[21] = Hepatic clearance in mouse liver microsomes preincubated for 5 mins followed by NADPH addition and measured after 5 to 60 mins by LC-MS/MS analysis; type: ADME, Microsome; conditions: time 5-60 min
Mus musculus [22] = assay: Downregulation of NLRP3 expression in colon of C57BL/6 mouse model of DSS-induced ulcerative colitis at 10 to 20 mg/kg, ig administered for 7 days by Western blot analysis; type: functional, organism-based; conditions: dose 10-20 mg/kg, time 7.0 day
Mus musculus [23] = assay: Downregulation of TNFalpha expression in C57BL/6 mouse model of DSS-induced ulcerative colitis at 10 to 20 mg/kg, ig administered for 7 days by ELISA; type: functional, organism-based; conditions: dose 10-20 mg/kg, time 7.0 day
[24] = target: NACHT, LRR and PYD domains-containing protein 3 (Mus musculus) (UniProt Q8R4B8); assay: Inhibition of NLRP3 inflammasome activation in LPS-stimulated mouse bone marrow-derived macrophages assessed as reduction in cleaved IL-1beta secretion in supernatant at 2 uM preincubated for 30 mins followed by ATP addition and measured after 0.5 hrs by Western blot analysis; type: tissue-based; conditions: Macrophage, time 60.0 min
Mus musculus [25] = assay: Downregulation of IL-1beta expression in colon of C57BL/6 mouse model of DSS-induced ulcerative colitis at 10 to 20 mg/kg, ig administered for 7 days by Western blot analysis; type: functional, organism-based; conditions: dose 10-20 mg/kg, time 7.0 day
Mus musculus [26] = assay: Downregulation of COX2 expression in colon of C57BL/6 mouse model of DSS-induced ulcerative colitis at 10 to 20 mg/kg, ig administered for 7 days by Western blot analysis; type: functional, organism-based; conditions: dose 10-20 mg/kg, time 7.0 day

inhibition [1]: Active
CL [3]: 152 mL/min/kg
Kd [4]: 263 nM
inhibition [6]: Active
inhibition [7]: Active
Tmax [8]: 2.33 h
inhibition [10]: Active
inhibition [11]: Active
inhibition [14]: Active
inhibition [15]: Active
inhibition [20]: Active
CLhep predicted [21]: 52.5 mL/min/kg
inhibition [24]: Active
Structure (SMILES): COc1cc(/C=C/c2ccc(NC(=O)C3CC3)cc2)c(/C=C/[N+](=O)[O-])c(OC)c1
IC50 (L02): > 100000 nM
Activity (BMDM [2]): inactive
Activity (BMDM [5]): inactive
Activity (Mus musculus [9]): Active
inhibition (Mus musculus [12]): Active
inhibition (Mus musculus [13]): Active
Activity (Mus musculus [16]): Active
Activity [17]: Non-Toxic
Activity [18]: Non-Toxic
Activity (BMDM [19]): inactive
Activity (Mus musculus [22]): Active
Activity (Mus musculus [23]): Active
Activity (Mus musculus [25]): Active
Activity (Mus musculus [26]): Active

— ChEMBL document CHEMBL4831528, “Discovery of Novel Pterostilbene-Based Derivatives as Potent and Orally Active NLRP3 Inflammasome Inhibitors with Inflammatory Activity for Colitis” (J Med Chem, 2021)
